{"source": "patent US5519008A", "about": "“Derivatives of triterpenoid acids as inhibitors of cell-adhesion molecules ELAM-1 (E-selectin) and LECAM-1 (L-selectin)” (Glycomed Incorporated, priority 1992, dated 1996)", "key": {"[1]": {"system": "arachidonic acid (AA), murine skin inflammation", "test": "arachidonic acid (AA) murine skin (ear) inflammation model", "format": "in vivo", "settings": "10 μl of 100mg/ml solution applied to the ear immediately after AA; 6mm ear disk weighed 90 minutes later; average of 6 experiments", "method": "For comparison, glycyrrhetinic acid was also tested. […] 10 μl of each compound was applied to the ear. […] 90 minutes later a 6mm disk of each ear was removed, and weighed. […] The results were the average of 6 experiments."}, "[2]": {"settings": "literature statement, Baren et al., J. Med. Chem. 17(2) (1974) 184-191; cited from earlier work"}}, "data": [{"compound": "CC1(C)[C@@H](O)CC[C@]2(C)[C@H]3C(=O)C=C4[C@@H]5C[C@@](C)(C(=O)O)CC[C@]5(C)CC[C@@]4(C)[C@]3(C)CC[C@@H]12", "note": "[glycyrrhetinic acid]", "values": [{"measurement": "reduction of the % maximal inflammatory response caused by AA alone", "setting": "[1]", "result": "about 60%"}]}, {"compound": "3β-O-(α-L-fucopyranosyl)-18β-olean-12-en-30-oic Acid [3-0-fucoside-18-β glycyrrhetinic acid]", "values": [{"measurement": "reduction of the % maximal inflammatory response caused by AA alone", "setting": "[1]", "result": "about 60%"}]}, {"compound": "CC1(C)[C@@H](O)CC[C@]2(C)[C@H]3CC=C4[C@@H]5C[C@@](C)(C(=O)O)CC[C@]5(C)CC[C@@]4(C)[C@]3(C)CC[C@@H]12", "note": "[11-deoxoglycyrrhetinic acid]", "values": [{"measurement": "aldosterone (DCA)-like activity", "setting": "[2]", "result": "does not substantially show the DCA activity"}]}]}
